# Results taken from patent US10207991B2, “Isoindoline compositions and methods for treating neurodegenerative disease” (priority 2014, dated 2019).
# “Also recorded” adds a separate entry of the source.
# Experiments:
# [1] = tested on: caspase-3 activation in neurons; settings: cited from earlier work
# [2] = tested on: caspase-3 activation in tumor cells; settings: cited from earlier work
# neurons = settings: 24 hours; cited from earlier work
# [3] = tested on: MDA-MB-435 or MDA-MB231 or SKOV-3 cells; assay: Tumor cell viability (MTS) assay; type: cell-based
# Protocol: The cytotoxicity of test compounds is determined using the CellTiter96 Aqueous One Solution Assay (Promega, Madison, Wis.). Briefly, MDA-MB-435 or MDA-MB231 or SKOV-3 cells were seeded in a 96-well plate at a density of 2000 cells/well on the day prior to treatment with sigma-2 receptor selective ligands. […] The plate is read at 490 nm in a Victor3 plate reader (PerkinElmer Life and Analytical Sciences, Shelton, Conn.). The EC^50 value, defined as the concentration of the sigma ligand required to inhibit cell viability by 50% relative to untreated cells, is determined from the dose response curve for each cell line. Siramesine is accepted as an agonist.
# [4] = Mouse liver microsome (MLM) stability; type: in vitro ADME
# Protocol: A first pharmacokinetic study was performed in microsomes of mice mouse liver microsomes, MLM) by a commercial contract research organization. The studies were performed according to Obach, R. S et al. (1997) J. Pharmacol. Exp. Ther., 283: 46-58, which is incorporated herein by reference.
# Sigma-2 receptor = Sigma-2 receptor (Rattus norvegicus (Rat), UniProt Q5U3Y7); assay: Sigma-2 receptor competitive radioligand binding assay; settings: read-out: Sigma-2 Receptor Affinity, Ki
# Sequence of Sigma-2 receptor (Q5U3Y7 whole entry): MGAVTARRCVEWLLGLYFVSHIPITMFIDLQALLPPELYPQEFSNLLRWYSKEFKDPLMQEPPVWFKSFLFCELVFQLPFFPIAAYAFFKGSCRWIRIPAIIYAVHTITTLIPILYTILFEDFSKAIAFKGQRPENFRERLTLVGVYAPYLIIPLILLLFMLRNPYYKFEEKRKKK
# Protocol: Radioligand binding assays for Sigma-1 receptors and Sigma-2 receptors were carried out by a commercial contract research organization. For Sigma-1 binding, various concentrations of test compounds from 100 μM to 1 nM were used to displace 8 nM [^3H](+)pentazocine from endogenous receptors on Jurkat cell membranes (Ganapathy M E et al. 1991, J Pharmacol. Exp. Ther. 289:251-260). 10 μM Haloperidol was used to define non-specific binding. For Sigma-2 receptors various concentrations of test compounds from 100 μM to 1 nM were used to displace 5 nM [^3H] […] (Bowen W D, et al. 1993, Mol. Neuropharmcol 3:117-126). 10 μM Haloperidol was used to define non-specific binding. […] Radioactivity on the dried filter discs was measured using a liquid scintillation analyzer (Tri-Carb 2900TR; PerkinElmer Life and Analytical Sciences). The displacement curves were plotted and the Ki values of the test ligands for the receptor subtypes were determined using GraphPad Prism (GraphPad Software Inc., San Diego, Calif.). The percentage specific binding was determined by dividing the difference between total bound (disintegrations per minute) and nonspecific bound (disintegrations per minute) by the total bound (disintegrations per minute).
# The affinity of candidate sigma-2 ligand compounds at sigma-1 and sigma-2 receptors was also determined by displacement of different known labeled sigma-2 or sigma-1 ligands. […]
SMILES,"Mouse liver microsomes, MLM t½ [4]",also measured
"COc1cc2c(cc1OC)CN(CCCCNC(=O)c1cc(C)ccc1OC)CC2 [RHM-1, N-[4-(3,4-dihydro-6,7-dimethoxyisoquinolin-2(1H)-yl)butyl]-2-methoxy-5-methylbenzamide]",–,block of caspase-3 activation by agonist SV-119 [1]: not able to block activation; caspase-3 activation [1]: do not induce caspase-3 activity; caspase-3 activation [2]: do not induce caspase-3 activity; inhibition of caspase-3 activation [2]: inhibits the activation; nuclear morphology / nuclear intensity compared to vehicle (neurons): do not decrease nuclear intensity
COc1ccc(C)cc1NC(=O)OC1C[C@H]2CCC[C@@H](C1)N2CCCCCCN (stereo partly drawn) [SV-119],–,"Action [3]: Full agonist (If the EC50s of a sigma-2 ligand test compound is less than 2 fold of EC50 of siramesine, this sigma-2 ligand test compound is considered as an agonist); caspase-3 activation [1]: activate caspase-3; caspase-3 activation [2]: activate caspase-3; nuclear morphology / nuclear intensity compared to vehicle (neurons): cause significant abnormal nuclear morphology"
Fc1ccc(-n2cc(CCCCN3CCC4(CC3)OCc3ccccc34)c3ccccc32)cc1 [Siramesine],–,caspase-3 activation [1]: activate caspase-3; caspase-3 activation [2]: activate caspase-3; also recorded: induces caspase-3 activity; nuclear morphology / nuclear intensity compared to vehicle (neurons): cause significant abnormal nuclear morphology
CC(C)(C)Oc1cc(CCC(C)(C)N2Cc3c(F)ccc(F)c3C2)ccc1O [compound 74],21 min,–
CC(C)(C)Oc1cc(CCC(C)(C)N2Cc3cccc(C(=O)O)c3C2)ccc1O [compound 75],–,Ki (Sigma-2 receptor): > 10 µM
COc1cc(CCC(C)(C)N2Cc3cccc(C(=O)NCCN(C)C)c3C2)ccc1O [compound 78],450 min,–
COc1cc(CCC(C)(C)N2Cc3cccc(C(=O)N4CCOCC4)c3C2)ccc1O [compound 80],45 min,–
COc1cc(CCC(C)(C)N2Cc3cccc(C(=O)N(C)CCN(C)C)c3C2)ccc1O [compound 81],88 min,–
COc1cc(CCC(C)(C)N2Cc3cccc(C(=O)N4CCN(C)CC4)c3C2)ccc1O [compound 82],27 min,–
COCCN(C)C(=O)c1cccc2c1CN(C(C)(C)CCc1ccc(O)c(OC)c1)C2 [compound 86],19 min,–
CC(C)COc1cc(CCC(C)(C)N2Cc3ccc(S(C)(=O)=O)cc3C2)ccc1O [compound 87],86 min,–
CC(C)COc1cc(CCC(C)(C)N2Cc3cccc(F)c3C2)ccc1O [compound 88],28 min,–
CC(C)COc1cc(CCC(C)(C)N2Cc3cccc(C(=O)N(C)C)c3C2)ccc1O [compound 89],17 min,–
CC(C)COc1cc(CCC(C)(C)N2Cc3cccc(C(=O)N4CCOCC4)c3C2)ccc1O [compound 90],9 min,–
CC(C)COc1cc(CCC(C)(C)N2Cc3cccc(C(=O)N4CCN(C)CC4)c3C2)ccc1O [compound 91],6 min,–
CC(=O)N1CCN(C(=O)c2cccc3c2CN(C(C)(C)CCc2ccc(O)c(OCC(C)C)c2)C3)CC1 [compound 92],7 min,–
CN1CCN(C(=O)c2cccc3c2CN(C(C)(C)CCc2ccc(O)c(OC(F)(F)F)c2)C3)CC1 [compound 93],5 min,–
CC(C)(CCc1ccc(O)c(OC(F)(F)F)c1)N1Cc2cccc(C(=O)N3CCOCC3)c2C1 [compound 94],14 min,–
